Entries after “also recorded” stand apart in the source; their conditions may differ. Where two headings read alike, the source gives them in different places. Ends that are not written are not given here.
How the values were obtained:
HLA-DR4 = experiment: Competition binding of MBP82–98 analogues to HLA-DR4 (AMCA-labeled HA306–318 competitor); parameters: species or system human; conditions: 37 °C; for binding to HLA-DR4, overall statement: competition with AMCA-labeled HA306–318, 48 h, pH 6.0
HLA-DR2 = experiment: Competition binding of MBP82–98 analogues to HLA-DR2 (AMCA-labeled MBP83–99 competitor); parameters: species or system human; conditions: 37 °C; for binding affinity to HLA-DR2 (competition), in words: triplicates
[1] = test system: experimental autoimmune encephalomyelitis (EAE); conditions: compared to linear PLP139–151 peptide; ref [30]; cited from earlier work
Text: The cyclization of peptides is of great interest, since the partial stability of linear peptides restricts them as potential therapeutics. We have extensively studied cyclic peptides for their enhanced stability and their potential to be used as immunotherapeutics in MS due to their altered three-dimensional conformation. […] Similarly, cyclization of the agonist proteolipid protein (PLP139–151) epit ...

autoreactive T cells = conditions: intravenous injections, preclinical and clinical studies; ref [15]; cited from earlier work
Text: Dirucotide is licensed to BioMS Medical Corp and shared the development with Eli Lilly and Company. […] Thus, in the populat ...

patients with MS = conditions: ref [16], cited from earlier work
Text: (§1) Dirucotide is licensed to BioMS Medical Corp and shared the development with Eli Lilly and Company. […] As a result, further planned/scheduled clinical trials were terminated. […] It is likely that ...

[2] = test system: CD4^+CD25^+Foxp3^+ regulatory T cells; conditions: ref [18], cited from earlier work
Text: as §1

[3] = test system: patients with relapsing remitting MS and secondary progressive MS; conditions: phase III, cited from earlier work
Text: as §1

[4] = phase II, HLA-DR2 and HLA-DR4 patients with MS

Substance: cycloDENPVVHFFK^91NIVTPRT (head to tail) [cyclic MBP82–98, head to tail cyclized dirucotide]
- binding affinity to HLA-DR4 (competition), in words (HLA-DR4; 10-fold, 20-fold, 50-fold excess over AMCA-labeled HA306–318 (1 μM), 48 h, 150 mM sodium phosphate pH 6.0, 15% acetonitrile, 0.1% Zwittergent-12, HPSEC fluorescence 350/450 nm, triplicates): considerably lower compared to its linear counterpart and linear APL MBP82–98 (Ala^91)
- binding to HLA-DR4, overall statement (HLA-DR4): lower affinity binding to the HLA-DR4 allele; also recorded: binds to HLA-DR2 and HLA-DR4 alleles with considerable affinity
- binding affinity to HLA-DR2 (competition), in words (HLA-DR2; 10-fold, 20-fold and 50-fold excess over AMCA-labeled MBP83–99 (1 μM), 48 h, 150 mM sodium phosphate pH 6.0, 15% acetonitrile, 0.1% Zwittergent-12, HPSEC fluorescence 350/450 nm): reduced affinity compared to its linear counterpart at 10-fold, 20-fold and 50-fold excess, but still with comparable affinity
- binding to HLA-DR2, overall statement (HLA-DR2; overall, competition with AMCA-labeled MBP83–99, 48 h, pH 6.0): strong binder with the HLA-DR2 allele; also recorded: binds to HLA-DR2 and HLA-DR4 alleles with considerable affinity; also recorded: higher affinity than MBP82–98 (A^91)

Substance: cyclic PLP139–151: cyclized agonist proteolipid protein (PLP139–151) epitope (CHCLGKWLGHPDK; also: cyclized; UniProt P60202 139-151, looked up, fragment)
- disease burden and pathology [1]: low disease burden, and minimal inflammatory, demyelinating, and axonopathic pathology compared to the linear PLP139–151 peptide

Substance: DENPVVHFFA^91NIVTPRT [linear MBP82–98 (Ala^91), linear altered peptide ligand of dirucotide, K91 mutated to Ala]
- binding to HLA-DR4, overall statement (HLA-DR4): considerable higher affinity than cyclic MBP82–98
- binding affinity to HLA-DR2 (competition), in words (HLA-DR2; 10-fold and 20-fold excess, AMCA-labeled MBP83–99, 48 h, pH 6.0, HPSEC fluorescence, relative to linear agonist MBP82–98): bound with much lower affinity
- binding affinity to HLA-DR2 (competition), in words (HLA-DR2; 50-fold excess, AMCA-labeled MBP83–99, 48 h, pH 6.0, HPSEC fluorescence): comparable to linear agonist MBP82–98 peptide at 50-fold excess

Substance: DENPVVHFFK^91NIVTPRT [dirucotide, 17-mer linear peptide MBP82–98]
- suppression of autoreactive T cells (autoreactive T cells): suppress autoreactive T cells
- T cell responses against MBP82–98 epitope (patients with MS; injected in high concentrations in patients with MS): suppressed T cell responses against MBP82–98 epitope
- safety (patients with MS; [4]): safe
- time to disease progression (patients with MS; [4]): prolonged the median time to disease progression
- time to disease progression (patients with MS; phase II, HLA-DR2 and HLA-DR4 patients with MS, listed as Dirucotide): delayed disease progression
- induction of CD4+CD25+Foxp3+ regulatory T cells ([2]; following injection in patients with MS): induce CD4^+CD25^+Foxp3^+ regulatory T cells
- number of CD4+CD25+Foxp3+ regulatory T cells ([2]; six weeks and six months after treatment): increase in the number of CD4^+CD25^+Foxp3^+ regulatory T cells
- benefit versus placebo ([3]; 612 subjects, ref [17]): did not provide any benefit compared to placebo
- primary and secondary endpoints ([3]; 612 subjects, ref [17]): no enhanced primary and secondary endpoints achieved
- benefit versus placebo ([3]; relapsing remitting MS and secondary progressive MS, ref [17],[18]): no added benefit was noted compared to the placebo group
